# Molecular target: T1, human orexin-2 receptor (OX2R) (Homo sapiens, UniProt O43614)
# T1 construct: expressed in transfected cells
# T1 sequence (O43614 1-444): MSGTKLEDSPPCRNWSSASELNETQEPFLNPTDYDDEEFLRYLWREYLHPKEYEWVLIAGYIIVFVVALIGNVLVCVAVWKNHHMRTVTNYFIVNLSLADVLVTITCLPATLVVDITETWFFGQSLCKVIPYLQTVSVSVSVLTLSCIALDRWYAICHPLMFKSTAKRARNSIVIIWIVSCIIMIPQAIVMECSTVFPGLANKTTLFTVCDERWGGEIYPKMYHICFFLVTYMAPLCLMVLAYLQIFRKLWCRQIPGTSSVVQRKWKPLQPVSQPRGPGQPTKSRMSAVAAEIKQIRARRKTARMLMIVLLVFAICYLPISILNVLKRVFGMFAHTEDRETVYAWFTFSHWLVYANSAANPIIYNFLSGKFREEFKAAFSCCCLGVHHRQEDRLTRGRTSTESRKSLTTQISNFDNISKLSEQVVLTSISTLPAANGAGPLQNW
# Test: Human OX2R IP1 assay
# Format: cell-based
# Conditions: T-Rex CHO cells stably overexpressing human OX2R; IP1 accumulation (HTRF); 1 hr at 37 degrees C
# Procedure: T-Rex CHO cells stably overexpressing the human orexin-2 receptor (OX2R) are induced overnight with 1 μg/mL of doxycycline in a T225 flask. 24 hours post induction, cells are lifted with accutase and plated into a 384-well proxy plate at 30,000 cells/well. Cells are then treated with different test compounds in 1× stimulation buffer containing 10 mM Hepes, 1 mM CaCl2, 0.5 mM MgCl2, 4.2 mM KCl, 146 mM NaCl, 5.5 mM glucose, and 50 mM LiCl, pH 7.4, for 1 hr at 37 degrees C. Following incubation, the reaction is terminated by the addition of detection mix, which is composed of IP1-d2 and anti-IP1-cryptate diluted in lysis buffer as well as 1× stimulation buffer. The plates are allowed to incubate for 1 hour at room temperature and are then read in the EnVision® multimode plate reader, measuring inositol phosphate levels.
# Cisbio IP1 is a cell-based functional assay quantifying the accumulation of inositol monophosphate (IP), a metabolite released as a result of orexin 2 receptor activation through the phospholipase C-Gq signaling pathway. This is a competitive immunoassay in which the IP1 produced by the cells upon receptor activation competes with the IP1 analog coupled to the d2 fluorophore (acceptor) for binding to an anti-IP1 monoclonal antibody labeled with Eu cryptate (donor). The measured HTRF-FRET based signal is inversely proportional to the IP1 concentration produced.
# The EC50 values reported in Table 2 were obtained according to the human OX2R IP1 assay described above. Data are the mean EC50 values ±S.E.M.
row,SMILES,EC50 [µM]
1,"Cn1cnc(N2CC[C@@H](NS(C)(=O)=O)[C@@H](OC[C@H]3CC[C@@H](c4ccccc4)CC3)C2)c1 (single isomer, unassigned) [Compound 60]",> 10
2,"Cn1ccc(N2CC[C@H](NS(C)(=O)=O)[C@H](OC[C@H]3CC[C@@H](c4ccccc4)CC3)C2)n1 (single isomer, unassigned) [Compound 47]",0.1 to 10
3,"COC(=O)N1CC[C@@H](NS(C)(=O)=O)[C@@H](OC[C@H]2CC[C@@H](c3ccccc3)CC2)C1 (single isomer, unassigned) [Compound 41]",> 10
4,"CS(=O)(=O)N[C@H]1CCN(c2ncco2)C[C@H]1OC[C@H]1CC[C@@H](c2ccccc2)CC1 (single isomer, unassigned) [Compound 39, N-(cis-1-(oxazol-2-yl)-3-((cis-4-phenylcyclohexyl)methoxy)piperidin-4-yl)methanesulfonamide]",0.1 to 10
5,"CS(=O)(=O)N[C@H]1CCN(C(=O)C2CCC2)C[C@H]1OCC1CCC(c2ccccc2)CC1 (single isomer, unassigned) [Compound 65]",< 0.1
6,"CS(=O)(=O)N[C@@H]1CCN(c2cccnn2)C[C@@H]1OC[C@H]1CC[C@@H](c2ccccc2)CC1 (single isomer, unassigned) [Compound 56]",0.1 to 10
7,"CC(C)(O)C(=O)N1CC[C@@H](NS(C)(=O)=O)[C@@H](OC[C@H]2CC[C@@H](c3ccccc3)CC2)C1 (single isomer, unassigned) [Compound 38]",0.1 to 10
8,"Cn1ccnc1N1CC[C@H](NS(C)(=O)=O)[C@H](OCC2CCC(c3ccccc3)CC2)C1 (single isomer, unassigned) [Compound 53]",> 10
9,"CS(=O)(=O)N[C@@H]1CCN(C(=O)C2(F)CC2)C[C@@H]1OC[C@H]1CC[C@@H](c2ccccc2)CC1 (single isomer, unassigned) [Compound 67]",< 0.1
10,"CS(=O)(=O)N[C@@H]1CCN(C(=O)C2(O)CCC2)C[C@@H]1OC[C@H]1CC[C@@H](c2ccccc2)CC1 (single isomer, unassigned) [Compound 43]",< 0.1
11,COC1(C(=O)N2CC[C@H](NS(C)(=O)=O)[C@H](OC[C@H]3CC[C@@H](c4ccccc4)CC3)C2)CCC1 [Compound 42],0.1 to 10
12,"CS(=O)(=O)N[C@H]1CCN(C(=O)C2(F)CCC2)C[C@H]1OCC1CCC(c2ccccc2)CC1 (single isomer, unassigned) [Compound 49]",< 0.1
13,"Cn1ccnc1N1CC[C@@H](NS(C)(=O)=O)[C@@H](OC[C@H]2CC[C@@H](c3ccccc3)CC2)C1 (single isomer, unassigned) [Compound 54]",0.1 to 10
14,"Cn1cnc(N2CC[C@H](NS(C)(=O)=O)[C@H](OCC3CCC(c4ccccc4)CC3)C2)c1 (single isomer, unassigned) [Compound 59]",0.1 to 10
15,"CS(=O)(=O)N[C@@H]1CCN(C(=O)C2(F)CCC2)C[C@@H]1OCC1CCC(c2ccccc2)CC1 (single isomer, unassigned) [Compound 50]",0.1 to 10
16,"COC(=O)N1CC[C@H](NS(C)(=O)=O)[C@H](OC[C@H]2CC[C@@H](c3ccccc3)CC2)C1 (single isomer, unassigned) [Compound 40]",0.1 to 10
17,"CS(=O)(=O)N[C@@H]1CCN(C(=O)C2(O)CCC2)C[C@@H]1OCC1CCC(c2ccccc2)CC1 (single isomer, unassigned) [Compound 44]",> 10
18,"Cn1ccc(N2CC[C@@H](NS(C)(=O)=O)[C@@H](OC[C@H]3CC[C@@H](c4ccccc4)CC3)C2)n1 (single isomer, unassigned) [Compound 48]",> 10
19,"CS(=O)(=O)N[C@@H]1CCN(C(=O)C2(F)CC2)C[C@@H]1OCC1CCC(c2ccccc2)CC1 (single isomer, unassigned) [Compound 68]",0.1 to 10
20,"CS(=O)(=O)N[C@H]1CCN(c2cccnn2)C[C@H]1OC[C@H]1CC[C@@H](c2ccccc2)CC1 (single isomer, unassigned) [Compound 55]",< 0.1

# The next lines start with the values.
row,EC50 [µM],SMILES
1,> 10,"C[C@@H](C1COC1)N1CC[C@H](NS(C)(=O)=O)[C@H](OCC2CCC(c3ccccc3)CC2)C1 (single isomer, unassigned) [Compound 61]"
2,> 10,"CS(=O)(=O)N[C@@H]1CCN(CC2(F)CCC2)C[C@@H]1OCC1CCC(c2ccccc2)CC1 (single isomer, unassigned) [Compound 70]"
3,0.1 to 10,"CC1(C(=O)N2CC[C@H](NS(C)(=O)=O)[C@H](OCC3CCC(c4ccccc4)CC3)C2)COC1 (single isomer, unassigned) [Compound 45]"
4,> 10,"C[C@@H](C1COC1)N1CC[C@@H](NS(C)(=O)=O)[C@@H](OCC2CCC(c3ccccc3)CC2)C1 (single isomer, unassigned) [Compound 62]"
5,0.1 to 10,"CS(=O)(=O)N[C@@H]1CCN(C(=O)C2CCC2)C[C@@H]1OCC1CCC(c2ccccc2)CC1 (single isomer, unassigned) [Compound 66]"
6,> 10,"CS(=O)(=O)N[C@H]1CCN(C2COC2)C[C@H]1OC[C@H]1CC[C@@H](c2ccccc2)CC1 (single isomer, unassigned) [Compound 51]"
7,0.1 to 10,"CS(=O)(=O)N[C@@H]1CCN(C(=O)C2CC2)C[C@@H]1OC[C@H]1CC[C@@H](c2ccccc2)CC1 (single isomer, unassigned) [Compound 37, N-[cis-1-cyclopropanecarbonyl-3-[(cis-4-phenylcyclohexyl)methoxy]piperidin-4-yl]methanesulfonamide]"
8,> 10,"C[C@H](C1COC1)N1CC[C@H](NS(C)(=O)=O)[C@H](OCC2CCC(c3ccccc3)CC2)C1 (single isomer, unassigned) [Compound 63]"
9,> 10,"C[C@H](C1COC1)N1CC[C@@H](NS(C)(=O)=O)[C@@H](OCC2CCC(c3ccccc3)CC2)C1 (single isomer, unassigned) [Compound 64]"
10,> 10,"CS(=O)(=O)N[C@@H]1CCN(CC2COC2)C[C@@H]1OC[C@H]1CC[C@@H](c2ccccc2)CC1 (single isomer, unassigned) [Compound 58]"
11,> 10,"CS(=O)(=O)N[C@H]1CCN(CC2COC2)C[C@H]1OC[C@H]1CC[C@@H](c2ccccc2)CC1 (single isomer, unassigned) [Compound 57]"
12,0.1 to 10,"CS(=O)(=O)N[C@H]1CCN(CC2(F)CCC2)C[C@H]1OCC1CCC(c2ccccc2)CC1 (single isomer, unassigned) [Compound 69]"
13,> 10,"CC1(C(=O)N2CC[C@@H](NS(C)(=O)=O)[C@@H](OCC3CCC(c4ccccc4)CC3)C2)COC1 (single isomer, unassigned) [Compound 46]"
14,> 10,"CS(=O)(=O)N[C@@H]1CCN(C2COC2)C[C@@H]1OC[C@H]1CC[C@@H](c2ccccc2)CC1 (single isomer, unassigned) [Compound 52]"

# Source: patent publication US20250223260A1, “Substituted Pyrrolidinyl And Piperidinyl Compounds And Related Methods Of Treatment” (Alkermes, Inc., priority 2022, published 2025)
